# In patent US9108950B2, “1-pyrazolyl-3-(4-((2-anilinopyrimidin-4-yl)oxy)napththalen-1-yl) ureas as p38 MAP kinase inhibitors” (Respivert Ltd., priority 2011, dated 2015):
# Tests used:
# [1] = test system: Differentiated U937 cells; assay: Cell viability: MTT assay; format: cell-based, human; settings: 1 μg/mL
# Procedure: Differentiated U937 cells were pre-incubated with each test compound (final concentration 1 μg/mL or 10 μg/mL in 200 μL media indicated below) under two protocols: the first for 4 hr in 5% FCS RPMI1640 media and the second in 10% FCS RPMI1640 media for 24 h. The supernatant was replaced with new media (200 μL) and MTT stock solution (10 μL, 5 mg/mL) was added to each well. After incubation for 1 hr the media were removed, DMSO (200 μL) was added to each well and the plates were shaken lightly for 1 hr prior to reading the absorbance at 550 nm. The percentage loss of cell viability was calculated for each well relative to vehicle (0.5% DMSO) treatment. Consequently an apparent increase in cell viability for drug treatment relative to vehicle is tabulated as a negative percentage.
# [2] = test system: LPS-induced neutrophil accumulation; assay: LPS-induced neutrophil accumulation in mice; format: in vivo, Balb/c mice
# Procedure: […] At T=0, mice were placed into an exposure chamber and exposed to LPS (7.0 mL, 0.5 mg/mL solution in PBS) for 30 min). After a further 8 hr the animals were anesthetized, their tracheas cannulated and BALF extracted by infusing and then withdrawing from their lungs 1.0 mL of PBS via the tracheal catheter. Total and differential white cell counts in the BALF samples were measured using a Neubaur haemocytometer. Cytospin smears of the BALF samples were prepared by centrifugation at 200 rpm for 5 min at RT and stained using a DiffQuik stain system (Dade Behring). Cells were counted using oil immersion microscopy. Data for neutrophil numbers in BAL are shown as mean±S.E.M. (standard error of the mean). The percentage inhibition of neutrophil accumulation was calculated for each treatment relative to vehicle treatment.
# Cigarette Smoke Model = assay: Cigarette smoke model; format: in vivo, A/J mice
# Procedure: A/J mice (males, 5 weeks old) were exposed to cigarette smoke (4% cigarette smoke, diluted with air) for 30 min/day for 11 days using a Tobacco Smoke Inhalation Experiment System for small animals (Model SIS-CS; Sibata Scientific Technology, Tokyo, Japan). […] At 12 hr after the last dosing, each of the animals was anesthetized, the trachea cannulated and bronchoalveolar lavage fluid (BALF) was collected. The numbers of alveolar macrophages and neutrophils were determined by FACS analysis (EPICS® ALTRA II, Beckman Coulter, Inc., Fullerton, Calif., USA) using anti-mouse MOMA2 antibody (macrophage) or anti-mouse 7/4 antibody (neutrophil). BALF was centrifuged and the supernatant was collected. The level of keratinocyte chemoattractant (KC; CXCL1) in BALF was quantitated using a Quentikine® mouse KC ELISA kit (R&D systems, Inc., Minneapolis, Minn., USA).
# [3] = Chemical stability by HPLC; format: physicochemical; settings: form B micronized
# Procedure: Analyses were carried out on a Waters Xbridge C18 column (3.0×150 mm; 3.5 μm) using the following operating conditions: column temperature: 40° C.; sample temperature: 5° C.; flow rate: 0.45 mL/min; injection volume: 7 μL; UV detection at 260 nm; mobile phase composition comprised of Phase A: 10 mM ammonium acetate+0.1%, v/v trifluoroacetic acid in water and Phase B: acetonitrile, using the gradient defined by the parameters below (Table 2).
# The reference and comparative samples were then analyzed by HPLC using the method described in General Procedures and by visual inspection.
# [4] = 0.05 mg/mL intra tracheal, 2 hr pre-dose
compound,measurement,setting,value
"Cc1ccc(-n2nc(C(C)(C)C)cc2NC(=O)Nc2ccc(Oc3ccnc(Nc4ccccc4)n3)c3ccccc23)cc1 [Compound (I), 1-(3-(tert-Butyl)-1-(p-tolyl)-1H-pyrazol-5-yl)-3-(4-((2-(phenylamino)pyrimidin-4-yl)oxy)naphthalen-1-yl)urea]",MTT Assay Cell viability in d-U937 Cells,[1]; 4 h,"−ve (−ve and +ve indicate the value is below and above respectively, the no significant effect threshold defined as 30% inhibition at 1 μg/mL at the time point indicated.)"
same,MTT Assay Cell viability in d-U937 Cells,[1]; 24 h,"−ve (−ve and +ve indicate the value is below and above respectively, the no significant effect threshold defined as 30% inhibition at 1 μg/mL at the time point indicated.)"
same,% inhibition of neutrophil accumulation,[2]; [4],18%
same,Neutrophil numbers in BALF,[2]; [4],15.6 ± 2.1 ×10^5/mL
same,% inhibition of neutrophil accumulation,"[2]; 0.2 mg/mL, 2 hr pre-dose",48%
same,Neutrophil numbers in BALF,"[2]; 0.2 mg/mL, 2 hr pre-dose",9.8 ± 1.6 ×10^5/mL
same,% inhibition of neutrophil accumulation,"[2]; 1.0 mg/mL, 2 hr pre-dose",77%
same,Neutrophil numbers in BALF,"[2]; 1.0 mg/mL, 2 hr pre-dose",4.4 ± 0.89 ×10^5/mL
same,% inhibition of neutrophil accumulation,"[2]; 1.0 mg/mL, 8 hr pre-dose",48%
same,Neutrophil numbers in BALF,"[2]; 1.0 mg/mL, 8 hr pre-dose",9.9 ± 1.8 ×10^5/mL
same,% inhibition of neutrophil accumulation,"[2]; 1.0 mg/mL, 12 hr pre-dose",4%
same,Neutrophil numbers in BALF,"[2]; 1.0 mg/mL, 12 hr pre-dose",18.3 ± 2.3 ×10^5/mL
same,duration of action (time course experiment),[2]; mice,long duration of action
same,effect on LPS-induced neutrophil accumulation,[2]; mice,dose dependent inhibition
same,CXCL1 in BALF % inhibition,Cigarette Smoke Model; 0.32 μg/mL,0%
same,Macrophage % inhibition,Cigarette Smoke Model; 0.32 μg/mL,11%
same,Neutrophil % inhibition,Cigarette Smoke Model; 0.32 μg/mL,12%
same,Neutrophil cell numbers in BALF,Cigarette Smoke Model; 0.32 μg/mL,12.4 ± 0.32 × 10^4/mL
same,Macrophage cell numbers in BALF,"Cigarette Smoke Model; 0.32 μg/mL intra-nasal, tobacco smoke",13.3 ± 0.20 × 10^4/mL
same,CXCL1 in BALF,"Cigarette Smoke Model; 0.32 μg/mL, tobacco smoke",13.6 ± 1.69 pg/mL
same,CXCL1 in BALF,Cigarette Smoke Model; 1.6 μg/mL,12.2 ± 0.96 pg/mL
same,CXCL1 in BALF % inhibition,Cigarette Smoke Model; 1.6 μg/mL,26%
same,Macrophage % inhibition,Cigarette Smoke Model; 1.6 μg/mL,28%
same,Macrophage cell numbers in BALF,Cigarette Smoke Model; 1.6 μg/mL,11.6 ± 0.42 × 10^4/mL
same,Neutrophil % inhibition,Cigarette Smoke Model; 1.6 μg/mL,29%
same,Neutrophil cell numbers in BALF,Cigarette Smoke Model; 1.6 μg/mL,10.5 ± 0.06 × 10^4/mL
same,CXCL1 in BALF,Cigarette Smoke Model; 8.0 μg/mL,11.4 ± 0.15 pg/mL
same,CXCL1 in BALF % inhibition,Cigarette Smoke Model; 8.0 μg/mL,41%
same,Macrophage % inhibition,Cigarette Smoke Model; 8.0 μg/mL,43%
same,Macrophage cell numbers in BALF,Cigarette Smoke Model; 8.0 μg/mL,10.1 ± 0.42 × 10^4/mL
same,Neutrophil % inhibition,Cigarette Smoke Model; 8.0 μg/mL,41%
same,Neutrophil cell numbers in BALF,Cigarette Smoke Model; 8.0 μg/mL,9.1 ± 0.28 × 10^4/mL
same,CXCL1 in BALF,Cigarette Smoke Model; 40 μg/mL,9.5 ± 0.84 pg/mL
same,CXCL1 in BALF % inhibition,Cigarette Smoke Model; 40 μg/mL,76%
same,Macrophage % inhibition,Cigarette Smoke Model; 40 μg/mL,64%
same,Macrophage cell numbers in BALF,Cigarette Smoke Model; 40 μg/mL,7.9 ± 0.20 × 10^4/mL
same,Neutrophil % inhibition,Cigarette Smoke Model; 40 μg/mL,52%
same,Neutrophil cell numbers in BALF,Cigarette Smoke Model; 40 μg/mL,7.9 ± 0.34 × 10^4/mL
same,effect on cigarette smoke induced CXCL1 (KC) production in BALF,Cigarette Smoke Model; mice,inhibited
same,effect on macrophage and neutrophil accumulation in BALF induced by cigarette smoke,Cigarette Smoke Model; mice,dose-dependent inhibition
same,chemical stability,[3],chemically stable
same,sensitivity to light,[3],some sensitivity to light was observed
same,Appearance,"[3]; 40° C./75% RH, 1 week",off-white
same,Sum of impurities by HPLC,"[3]; 40° C./75% RH, 1 week",0.66%
same,Appearance,"[3]; 40° C./75% RH, 4 weeks",off-white
same,Sum of impurities by HPLC,"[3]; 40° C./75% RH, 4 weeks",0.68%
same,Appearance,"[3]; 50° C., 1 week",off-white
same,Sum of impurities by HPLC,"[3]; 50° C., 1 week",0.69%
same,Appearance,"[3]; 50° C., 4 weeks",off-white
same,Sum of impurities by HPLC,"[3]; 50° C., 4 weeks",0.66%
same,Appearance,"[3]; 70° C./75% RH, 1 week",off-white
same,Sum of impurities by HPLC,"[3]; 70° C./75% RH, 1 week",0.73%
same,Appearance,"[3]; 80° C., 1 week",off-white
same,Sum of impurities by HPLC,"[3]; 80° C., 1 week",0.73%
same,Appearance,"[3]; 0.3 day, ICH light",off-white
same,Sum of impurities by HPLC,"[3]; 0.3 day, ICH light (700 W/m^2)",1.44%
same,Appearance,"[3]; RT/56% RH, 4 weeks",off-white
same,Sum of impurities by HPLC,"[3]; RT/56% RH, 4 weeks",0.67%
same,Appearance,"[3]; RT/75% RH, 4 weeks",off-white
same,Sum of impurities by HPLC,"[3]; RT/75% RH, 4 weeks",0.67%
same,Appearance,"[3]; RT/<5% RH, 4 weeks",off-white
same,Sum of impurities by HPLC,"[3]; RT/<5% RH, 4 weeks",0.67%
same,Appearance,[3]; T = zero,off-white
same,Sum of impurities by HPLC,[3]; T = zero,0.66%
